Here are results for two compounds from patent publication US7367941B2, “Detection and characterization of cholinergic oscillatory control in peripheral microvasculature” (Yale University, priority 2000, dated 2008).

SMILES strings stand for the structures.

What all share (format): in vivo, human
Test [1] concerns forehead microvasculature. Kind of test: Laser Doppler flowmetry of forehead flux, spectral- and time-domain analysis, during phenylephrine challenge and added atropine. Particulars: for beat-to-beat % change of forehead flux: p<0.05; for flux at the forehead: mean (SE). The method, then:
(§1) With IRB approval, 15 healthy nonsmoking male volunteers were instructed to refrain from caffeine and other known vasoactive compounds for at least 24 hours prior and then lie recumbent in a temperature-regulated room (70±1° F.). Surface electrodes were applied for monitoring ECG and respiration, a noninvasive BP cuff was placed over the brachial artery of one arm, and a 22 gauge intravenous catheter was placed in the opposite arm. In the first eight subjects, laser Doppler flowmetry probes (Periflux 2B, Perimed, Sweden) then were applied to the skin via double-stick tape on the forehead and on the finger contralateral to the BP cuff. In the remaining seven subjects, the sites of laser Doppler monitoring were modified and additional monitors were applied (see Example 3).
(§2) The ECG, respiration, and laser Doppler flux were recorded at 250 Hz with a microprocessor-based system which consisted of analog to digital converters, commercially available data acquisition and waveform analysis software (SnapMaster, HEM Data Corp.) and customized software for beat detection. Each R-wave was identified using the recommended combination of derivative plus threshold detection of the fiducial point of the data sampled at 250 Hz (Task Force of the European Society of Cardiology and the North American Society of Pacing and Electrophysiology: Heart rate variability. Standards of measurement, physiological interpretation, and clinical use. Circulation 1996;93:1043-1065). Ectopic beats were to be replaced with an interpolated value, but none were noted. BP was recorded at 2-5 min intervals.
(§3) Following 5 min of baseline (BASE) monitoring during spontaneous ventilation BASESPONT), each subject breathed in synchrony with an audible metronome at a rate of 12 breaths/min (BASEMETRO); each segment lasted 5 min (of which the middle 200 sec were used for subsequent analysis). Subjects then received an infusion of phenylephrine, which was titrated until there was >25% decline in finger flow for 10 min. […] Five minutes of data during this PHENYL phase were recorded during SPONT and during METRO (PHENYLSPONT and PHENYLMETRO). Atropine was then administered IV in 0.25-0.50 mg increments until HR was at least 33% above PHENYL. Measurements during this PH+ATR phase were recorded for 5 min during each of the two respiratory patterns (PH+ATRSPONT and PH+ATRMETRO). The phenylephrine then was discontinued. The values from all subjects were averaged to provide the overall means±standard error (SE) for the sampling periods that are summarized in the FIGS. 5-8.
(§4) The frequency and power of the oscillations of the R-R intervals and laser Doppler flux values (flux) were characterized by frequency-domain analysis. As described in the prior art (Task Force of the European Society of Cardiology, 1996), the “R-R tachogram” and laser Doppler signal were resampled at 5 Hz, a rate more than sufficient to enable identification of oscillatory frequencies within the frequency range of interest (according to Nyquist's theorem and recent Task Force recommendations (see Task Force of the European Society of Cardiology, 1996)). An APSD was then generated for the R-R interval [APSDR-R (msec^2/Hz vs. Hz)], for the laser Doppler signal taken at the forehead [APSDFOREHEAD FLUX (mVolt^2/Hz vs. Hz)], and for the laser Doppler signal taken at the finger [APSDFINGER (mvolt^2/Hz vs. Hz)] in each subject using a traditional (Parzan) window. For each APSD, 200 sec of data were resampled at 5 Hz, providing a spectral resolution of 0.005 Hz (5 cycles per sec/1,000 data points); the mean value of the signal was subtracted from the data to eliminate its influence on the APSD. For purposes of presentation, each pair of adjacent 0.005 Hz bins was summated to provide bins with a width of 0.01 Hz. […]

For test [2], the system named is R-R intervals of the electrocardiogram. The experiment in a line: ECG R-R interval variability (APSDR-R, time-domain indices), HR and BP during phenylephrine and added atropine. To be noted: for effect on BP and HR (R-R interval): spontaneous and metronome breathing. The procedure: as §1, §2, §3, §4
Another test deals with finger microvasculature. The experiment in a line: Laser Doppler flowmetry of finger flux during phenylephrine infusion. The procedure: as §1, with “In the remaining seven subjects, the sites of laser Doppler monitoring were modified and additional monitors were applied (see Example 3).” left out
The ECG, respiration, and laser Doppler flux were recorded at 250 Hz with a microprocessor-based system which consisted of analog to digital converters, commercially available data acquisition and waveform analysis software (SnapMaster, HEM Data Corp.) and customized software for beat detection. […] BP was recorded at 2-5 min intervals.
Following 5 min of baseline (BASE) monitoring during spontaneous ventilation BASESPONT), each subject breathed in synchrony with an audible metronome at a rate of 12 breaths/min (BASEMETRO); each segment lasted 5 min (of which the middle 200 sec were used for subsequent analysis). […] Five minutes of data during this PHENYL phase were recorded during SPONT and during METRO (PHENYLSPONT and PHENYLMETRO). […]

The subject of test [3] is forehead flux and R-R oscillations. The experiment in a line: Cross power spectral density of forehead flux and R-R after normalization to mean. Particulars: PHENYL. The procedure: FIGS. 11A-D are a graphical comparison of normalized data in the time and frequency-domains, in accordance with the present invention. The signals were normalized prior to time and frequency domain analysis, as follows: (1) LDF flow data was resampled at 5 Hz (data from FIG. 5); (2) mean flow data for the entire study segment (i.e., 5.33522) was determined; and (3) the normalized values were obtained by dividing each resampled value by the corresponding mean value for the study segment. Normalization facilitates visual inspection as well as time-domain and spectral-domain comparisons of the oscillatory signal(s) to values under different circumstances (e.g. baseline vs. challenge state) or to the values of another parameter. Although the values in FIG. 11 were normalized to the mean, it may be preferable in some settings to normalize to the median since this is less affected by outliers. […] The CPSD is calculated by determining the normalized power of a signal from the instantaneous amplitude-spectrum using the following equation: Gab=ave(SaSb*)/df where Gab=instantaneous amplitude spectral density of the sampling channels; Sa=instantaneous amplitude spectrum of channel a; Sb*=complex conjugate of Sb; df=frequency resolution. […]

Test [4] has as its system forehead microvasculature. Kind of test: Laser Doppler flowmetry of forehead flux, spectral- and time-domain analysis, during phenylephrine challenge and added atropine.

For `CN1[C@@H]2CC[C@H]1C[C@@H](OC(=O)C(CO)c1ccccc1)C2` (some centres unmarked) [atropine], the “effect on maxbin power of APSDFOREHEADFLUX” value in test [1] (atropine IV added to phenylephrine infusion (PH+ATR), METRO, p=NS vs BASE) is on record as “reduced power in the maxbin to near-BASE”. Further, the “effect on phenylephrine-induced HF forehead oscillatory signal” value in test [1] (atropine added to phenylephrine) is reported as “nearly eliminated”. In addition, the “effect on power in the max bin of APSDR-R” value in test [2] (atropine added to phenylephrine, SPONT and METRO) is “decrease significantly below BASE values”. Moreover, the “effect on BP and HR (R-R interval)” value in test [2] was “exacerbated the increase in BP and reversed the prolongation of the R-R interval”.
In the case of `CNC[C@H](O)c1cccc(O)c1` [phenylephrine], the “Power/bin of the APSDFOREHEADFLUX” value in test [1] (METRO, PHENYL, BASE 1.3(0.5), p=0.0005) is given as 6.5(2.2) mvolt^2/Hz. For the same compound, the “beat-to-beat % change of forehead flux” value in test [1] (METRO, PHENYL, BASE 4.9 (1.1)%) is listed as 11.9 (2.3) %; in test [1] (SPONT, PHENYL, BASE 3.4 (0.3)%), 10.7 (2.2) %. Also, the “Maxbin power of APSDFOREHEADFLUX” value in test [1] (METRO, PHENYL, BASE 10.2(5.5), p=0.0003) was 101.7(39.7) mvolt^2/Hz. The “normalized maxbin power of APSDFOREHEADFLUX, % of average power/bin at BASE” value was 7,304(1,630) % in test [1] (PHENYLMETRO) and 8,061(4,550) % in test [1] (PHENYLSPONT). Further, the “flux at the forehead” value in test [1] (PHENYLMETRO, p>0.4 vs BASE 2.1 (0.5)) is 2.3 (0.6) volts; in test [1] (PHENYLSPONT, p>0.3 vs BASE 2.1 (0.5)), 1.5 (0.6) volts. The “frequency of atropine-sensitive peak in APSDFOREHEADFLUX” value in test [1] (PHENYLSPONT) stood at 0.14±0.02 Hz. Further, the “frequency of maxbin / oscillatory peak in APSDFOREHEADFLUX” value in test [1] (phenylephrine infusion, METRO (0.20 Hz breathing)) is 0.14±0.02 Hz. Further, the “atropine-sensitive oscillations in the finger” value in the test with finger microvasculature (phenylephrine infusion) is reported as “did not induce atropine-sensitive oscillations in the finger”. In addition, in the test on finger microvasculature (phenylephrine infusion 0.4-0.6 μg/kg/min, both METRO and SPONT, p<0.05), the Finger flux decline result is on record as “approximately 50%”. Besides, the “power/bin for each of the 26 bins in the APSDR-R” value in test [2] (METRO, PHENYL, BASE 475.4 (111.7)) was 393.8 (100.9) msec^2/Hz. The “normalized power of the max bin (0.2 Hz) of APSDR-R” value in test [2] (METRO, PHENYL, BASE 799.7 (138.2)%) is on record as 1050.0 (205.8) %. In test [2] (METRO, PHENYL, BASE 4,354 (1556.0)), the “power of the max bin of the RF band of APSDR-R” value was 4060.2 (996.2) msec^2/Hz. In addition, the “beat-to-beat % change of R-R” value was 5.6 (0.7) % in test [2] (metronome breathing, PHENYL, BASE 4.3 (0.6)%, p=0.2) and 3.7 (0.4) % in test [2] (spontaneous breathing, PHENYL, BASE 3.2 (0.4)%, p=ns). Besides, the “effect on BP and HR (R-R interval)” value in test [2] was “increase in BP and slowing of HR”. The “degree to which maxbin in IF band of CPSDFLUX&R-R reflected power in maxbin of APSDFOREHEADFLUX/mean” value in test [3] (BASE 32.3±10.7%, p=0.004) came to 7.0±1.8%. Besides, the “relative degree to which maxbin in IF band of APSDR-R/mean reflected power in maxbin of CPSDFLUX&R-R” value in test [3] (BASE 33.6±11.0%, p=0.002) is 7.3±1.8%. For the same compound, the “maxbin frequency of the APSDFOREHEAD FLUX” value in test [4] (one subject, phenylephrine infusion, continuous intra-arterial monitoring) is given as 0.13 Hz. Moreover, in test [4] (two subjects, phenylephrine bolus), the “frequency at which forehead oscillations increased” value is “approximately 0.13 Hz”.
